System: liver radiation-induced fibrosarcoma (RIF-1), RFA-induced necrosis
Assay: Hypericin distribution in liver RIF-1 tumor in mice after radiofrequency ablation, fluoromacroscopy and fluorescence microscopy
Format: in vivo
Details: 5 mg/kg iv 24 h after RFA, 3 d after injection
Protocol: The rectangular frame in A and B indicates where micrographs (C and D) were approximately focused. […] Thus, the prolonged retention of hypericin in necrosis matches well the radiation half life of iodine-131 (8 d) or yttrium-90 (64 h), which offers an ideal condition for the present adjuvant anti-cancer radiotherapy with combined use of a small molecule therapeutically labeled NACCs featuring multi-millimeter irradiation penetration (max. range of beta particles in tissue is 2.4 mm for iodine-131 and 12 mm for yttrium-90).

Cc1cc(O)c2c(=O)c3c(O)cc(O)c4c5c(O)cc(O)c6c(=O)c7c(O)cc(C)c8c1c2c(c34)c(c78)c65 [hypericin]
Fluorescence microscopy of necrotic tumor regions: can still be detected in RFA-induced necrotic tumor regions (NT) | Tissue distribution by UV light fluoromacroscopy: almost completely cleared from viable liver (VL) and viable tumor (VT), but is retained only in necrotic tumor (NT) and necrotic liver (NL)

Source: US8741262B2, “Targeted radiotherapy” (Katholieke Universiteit Leuven, K.U. Leuven R&D, priority 2007, dated 2014)
